We go through two compounds from patent publication US20190086391A1, “METHOD AND SYSTEM FOR CONTINUOUS BIOSENSING” (Yissum Research Development Company of the Hebrew …, priority 2016, published 2019).

Several values for one entry are separate records, joined by “and”; a condition that tells them apart may be missing. Equal entries are not always repeated. Entries after “also recorded” stand apart in the source; their conditions may differ.

For series [1], the system named is HepG2/C3A cells. In words: Real-time amperometric glucose and lactate measurements in bioreactor outflow. The note with it: for total glucose uptake rate: 50 μM treated cells. In kind it is cell-based, human. How it is done:
Amperometric glucose and lactate sensors were purchased from BioSensor Technology (Berlin, Germany) and embedded in a CNC-fabricated PMMA flow-chamber with an inner volume of 26 μl. The sensors are based on the enzymatic reactions of glucose oxidase, with a linear range of 0.5 mM to 30 mM, and lactate oxidase, with a linear range of 0.5 mM to 20 mM. Both sensors produce H2O2 in amounts proportional to the measured metabolite, which is detected with platinum electrodes under polarized condition. The microfluidic controller (13) was programmed to open a microfluidic valve every hour, allowing a 40 μl medium sample to flow through the switchboard and into the sensors unit. Amperometric measurement lasted 200 seconds and was followed by automated perfusion of PBS washing solution, CAL 4+M calibration buffer (Eschweiler, Germany), and 4 seconds of air bubble acting as a diffusion barrier between samples. Reading was carried out on EmStat3 OEM embedded potentiostat (PalmSens, Netherlands) connected to the central computer.
Glucose uptake, oxygen uptake and lactate production rates were measured by calculating the change in metabolite concentration between the bioreactor in- and outflow, as function of perfusion rate and cell number as described above. Metabolic rates were calculated assuming negligible contribution to oxygen uptake by fatty acid oxidation and enzymatic activity. Low level of lipids in the culture medium ensured that fatty acid uptake was 50-fold lower than glucose while glutamine contribution to the Krebs cycle was minor (results).

Series [2] concerns HepG2/C3A cells. In words: CDFDA staining for cholestasis (CDF retention, MRP2). In kind it is cell-based, human. The conditions noted are these: 24 hours exposure to 200 μM; due to inhibition of MRP2. How it is done:
(§1) PMDS microwell inserts were removed from the bioreactor following 24 hours exposure to rotenone or troglitazone. Cholestasis was evaluated using 5(6)-carboxy-2′, 7′-dichlorofluorescein diacetate (CDFDA) cell permeable dye which is metabolized to fluorescent CDF and secreted to active bile canaliculi by active multidrug resistance-associated protein 2 (MRP2). Briefly, cells were incubated with 2 μg/mL of CDFDA and 1 μg/mL of Hoechst 33342 for 20 min, and washed with PBS. Number of bile canaliculi foci was normalized for number of Hoechst-labeled nuclei. Apoptosis was evaluated using DeadEnd™ fluorometric TUNEL system (Promega, USA) according to manufacturer directions. Briefly, cells were fixed in 4% paraformaldehyde, permeabilized and exposed to fluorescein-12-dUTP and terminal deoxynucleotidyl transferase (TdT), dyeing apoptotic nuclei green. The reaction was subsequently stopped and the cells counterstained for Hoechst. A percent apoptotic nucleus was calculated by dividing the number of TUNEL to Hoechst positive nuclei.

Series [3] relates to HepG2/C3A organoids. In words: LIVE/DEAD cell viability staining. In kind it is cell-based. The note with it: 50 μM, 24 hours. How it is done:
Unless otherwise noted, cell viability was determined utilizing LIVE/DEAD Cytotoxicity kit (Molecular Probes, Eugene, Oreg.) according to manufacturer's instructions. In brief, cultures were incubated with 2 μM Calcein AM and 3 μM ethidium homodimer-1 for 25 minutes. Hydrolysis by functional intracellular esterases causes live cells to fluoresce green, while the punctured membranes of dead cells permit ethidium homodimer-1 to bind DNA and fluoresce red. Cellular viability was calculated by live to dead ratio and normalized to negative control.

Series [4] relates to HepG2/C3A cells. In words: Seahorse Mitochondrial Stress Test (OCR, ECAR), static culture. The note with it: 50 μM; for decrease in maximal mitochondrial capacity: after uncoupler injection. In kind it is cell-based, human. How it is done: HepG2/C3A cells were plated in gelatin-coated SeaHorse XFp cell culture miniplates (Seahorse Bioscience, USA) and cultured for 24 hours. Subsequently, cultures were treated with medium containing 50 μM troglitazone for 6 hours, 50 μM rotenone for 3 hours, or vehicle control prior to initiation of assay. Mitochondrial Stress Test assay was conducted per manufacturer instructions (29). Briefly, cells were incubated in unbuffered XF Base Medium supplemented with 2 mM glutamine, 1 mM sodium pyruvate, and 10 mM glucose (pH 7.4) for 1 hour at 37° C. in a non-CO2 incubator. Basal oxygen consumption rate (OCR) was measured for 30 min, followed by injection of 1 μM oligomycin, a mitochondrial […] inhibitor that completely blocks oxidative phosphorylation. The decrease in OCR due to oligomycin treatment is defined as oxidative phosphorylation rate. 1 μM carbonyl cyanide-4 (trifluoromethoxy) phenylhydrazone (FCCP), an uncoupling agent, is added at 60 min to measure maximal mitochondrial activity followed by complete inhibition at 90 min using a mixture of 0.5 μM antimycin A and rotenone, mitochondrial Complex III and Complex I inhibitors. Basal extracellular acidification rates (ECAR) was measured for 30 min, in the presence of 10 mM glucose, followed by injection of 1 μM oligomycin. The increase in ECAR due to oligomycin treatment was defined as glycolytic capacity. Data are presented normalized to […] cells as determined by Hoechst DNA content assay.

For series [5], the system named is isolated mitochondria. In words: Oxygen consumption rate of ADP-stimulated isolated mitochondria. In kind it is biochemical. The conditions noted are these: 50 μM injected after ADP; no enzymatic activation. How it is done:
Mitochondria were isolated using a Mitochondria Isolation Kit (Abcam, UK) per manufacturer instructions. Briefly, 10^7 cells were collected and ruptured using 30 strokes in a pre-cooled dounce homogenizer. Homogenate was centrifuged twice at 1,000×g for 10 minutes at 4° C. to remove debris, and finally at 12,000×g for 15 minutes at 4° C. Pellet containing the isolated mitochondria was resuspended in a protease inhibitor cocktail. Protein concentration was determined using Bradford. 20 μg of mitochondrial protein per well was plated in gelatin-coated SeaHorse XFp cell culture miniplate and centrifuged at 3,000×g for 20 minutes at 4° C. in mitochondrial assay solution (MAS) as previously described (29). Oxygen consumption rate (OCR) was measured by the XFp Extracellular Flux Analyzer (Seahorse Biosciences, USA). Mitochondrial activity was profiled by successive injections of ADP (Sigma-Aldrich, Israel) and 50 μM of troglitazone, rotenone or DMSO control.

For series [6], the system named is HepG2/C3A cells. In words: Quantification of ATP/ADP ratio. In kind it is cell-based, human. The note with it: 50 μM. How it is done:
Intracellular ATP and ADP quantification was carried out using Abeam ADP/ATP Assay Kit (#ab65313), according to manufacturer's instructions. […] Cells were incubated in nucleotide releasing buffer for 5 min at room temperature, with gentle shaking. Background bioluminescence reading of the reaction mix was taken for calibration, followed by 2 min incubation of 50 μl sample solution in each reaction well, and a bioluminescence reading to measure cellular ATP content. ADP converting enzyme was then added, as instructed, following incubation of 2 min at room temperature to measure total ADP+ATP.

The subject of series [7] is HepG2/C3A cells. In words: TUNEL apoptosis assay. In kind it is cell-based, human. The note with it: 24 hours exposure to 200 μM. How it is done:
as §1

The mark [8] stands for this setting: surrogate of lactate production.
Where [9] appears, read: 50 μM, after 6 hours of exposure.
Setting [10] is: 50 μM, within the first 2 hours.

As to `Cc1c(C)c2c(c(C)c1O)CCC(C)(COc1ccc(CC3SC(=O)NC3=O)cc1)O2` (centres unmarked) [troglitazone], in series [1], the “total glucose uptake rate” value stood at 2.5 nmol/min/10^6. Besides, the “lactate over glucose ratio” value in series [1] (50 μM, 6 hours after exposure) amounted to 1.8. Moreover, in series [1] (50 μM, within 4 to 5 hours), the “increase in lactate production” value is on record as 51%. Besides, the “increase in intracellular accumulation of bile acids / CDF staining (cholestasis)” value in series [2] was 4.5 fold and 4.5±0.6 fold. For the same compound, in series [3], the “cell death (Live/Dead)” value is recorded as “Less than 5%” and the “cell viability compared with untreated control” value is “not significantly different from untreated control”. Besides, in series [4] (static culture), the “decrease in (mitochondrial) basal metabolic rate” value was found to be 20±6% and the “decrease in maximal mitochondrial capacity” value is reported as 22±9%. Besides, the “increase in extracellular acidification rate (ECAR)” value in series [4] (setting [8]) was 43±43%.

Consider `C=C(C)[C@H]1Cc2c(ccc3c2O[C@@H]2COc4cc(OC)c(OC)cc4[C@@H]2C3=O)O1` [rotenone], for which the “loss of OCR / inhibition of mitochondrial respiration in isolated mitochondria” value in series [5] is on record as “immediate; also recorded: directly inhibit mitochondrial respiration in minutes”. Also, the “exposure time after which the metabolic shift from oxidative phosphorylation to glycolysis occurred” value in series [1] (50 μM) worked out at 3 h. Besides, in series [1], the “total glucose uptake rate” value is 1.0 nmol/min/10^6. In addition, in series [1] (50 μM, 6 hours after exposure), the “lactate over glucose ratio” value was found to be 6.1. In series [1] (setting [9]), the “additional drop in glucose uptake” value is recorded as 65% and the “change in lactate production” value is reported as “no change”. Moreover, the “lactate over glucose ratio” value in series [1] (50 μM, within 3 hours after exposure) is reported as 2.6. For the same compound, in series [1] (setting [10]), the “drop in glucose uptake” value is recorded as 59% and the “drop in lactate production” value is reported as 35%. For the same compound, the “lactate over glucose ratio” value in series [1] (gradual switch to compensatory mechanisms) was “above 2”. The “decrease in ATP/ADP ratio” value in series [6] stood at 47%. Also, in series [4] (static culture), the “decrease in (mitochondrial) basal metabolic rate” value was 83% and 83±5%; the “decrease in oxidative phosphorylation” value was 85±5% and 85±8%; the glycolytic capacity change result is “relatively unchanged”; the “decrease in maximal mitochondrial capacity” value is 87%. The “decrease in extracellular acidification rate (ECAR)” value in series [4] (setting [8]) amounted to 21±12%. Besides, in series [7], the “increase in apoptosis (TUNEL)” value is 14 fold and 14±2 fold.
